Data from US20240174618A1, “SUBSTITUTED (2-HETEROARYLOXYPHENYL)SULFONATES, SALTS THEREOF AND THEIR USE AS HERBICIDAL AGENTS” (Bayer Aktiengesellschaft, priority 2021, published 2024).

Legend:
Type in all cases: in vivo
Veronica persica (VERPE) [1] = test: C. Herbicidal pre-emergence efficacy, VERPE; details: scored after about 3 weeks
Outline: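 Pre-emergence test: formulated compounds sprayed as aqueous suspension or emulsion with 0.5% additive at 600 l/ha onto soil covering sown seeds, at rates corresponding to 320 g/ha or less. After about 3 weeks in greenhouse, efficacy scored visually as percent versus untreated controls (100% = plants dead).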

[2] = system: Matricaria inodora (MATIN); test: A. Herbicidal pre-emergence efficacy, MATIN
Outline: (§1)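 Pre-emergence soil-surface spray in sandy loam pots, WP/EC in water plus 0.5% additive, 600 L/ha. Visual % damage rating after about 3 weeks in greenhouse vs. untreated; 0% = control-like, 100% = dead plants. Rates up to 1280 g/ha.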

[3] = system: Echinochloa crus-galli (ECHCG); test: B. Herbicidal post-emergence efficacy, ECHCG; details: rated visually after about 3 weeks
Outline: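 Weeds grown in sandy loam in greenhouse and sprayed at the one-leaf stage, 2–3 weeks after sowing, with WP or EC formulations plus 0.5% additive at 600 L/ha water. Injury rated visually versus untreated controls after about 3 weeks (100% = dead, 0% = like control); rates up to 1280 g/ha.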

Setaria viridis (SETVI) = test: A. Herbicidal pre-emergence efficacy, SETVI
Outline: as §1

[4] = system: Echinochloa crus-galli (ECHCG); test: A. Herbicidal pre-emergence efficacy, ECHCG; details: scored visually after about 3 weeks vs untreated controls
Outline: as §1

Kochia scoparia (KCHSC) = test: A. Herbicidal pre-emergence efficacy, KCHSC
Outline: as §1

Veronica persica (VERPE) [5] = test: A. Herbicidal pre-emergence efficacy, VERPE; details: for Pre-emergence efficacy against VERPE: dosage 80 g/ha
Outline: as §1

[6] = pre-emergence, dosage 1280 g/ha
[7] = 80 g/ha, scored visually after about 3 weeks vs untreated controls

| SMILES | Pre-emergence efficacy against VERPE (Veronica persica (VERPE) [1]; 80 g/ha) | Pre-emergence efficacy against VERPE (Veronica persica (VERPE) [1]; 320 g/ha) | Pre-emergence efficacy against MATIN [2, 6] | Post-emergence efficacy against ECHCG in % ([3]; 320 g/ha) | Post-emergence efficacy against ECHCG in % ([3]; 1280 g/ha) | Pre-emergence efficacy against SETVI (Setaria viridis (SETVI); dosage 80 g/ha) | Pre-emergence efficacy against SETVI (Setaria viridis (SETVI); dosage 320 g/ha) | Pre-emergence efficacy against SETVI (Setaria viridis (SETVI); dosage 1280 g/ha) | Pre-emergence efficacy against ECHCG ([4]; 80 g/ha) | Pre-emergence efficacy against ECHCG ([4]; 320 g/ha) | Pre-emergence efficacy against ECHCG ([4]; 1280 g/ha) | Pre-emergence efficacy against KCHSC (Kochia scoparia (KCHSC); [7]) | Pre-emergence efficacy against KCHSC (Kochia scoparia (KCHSC); pre-emergence, dosage 320 g/ha) | Pre-emergence efficacy against KCHSC (Kochia scoparia (KCHSC); [6]) | Pre-emergence efficacy against VERPE in % (Veronica persica (VERPE) [5]; 320 g/ha) | Pre-emergence efficacy against VERPE in % (Veronica persica (VERPE) [5]; 1280 g/ha) | Pre-emergence efficacy against VERPE (Veronica persica (VERPE) [5]) | Pre-emergence efficacy against MATIN ([2]; 320 g/ha, scored visually after about 3 weeks vs untreated controls) | Post-emergence efficacy against ECHCG in % ([3]; 80 g/ha) |
| --- | --- | --- | --- | --- | --- | --- | --- | --- | --- | --- | --- | --- | --- | --- | --- | --- | --- | --- | --- |
| O=S(=O)(CCCCl)Oc1c(F)cccc1Oc1ncc(Cl)cn1 [Example I-14] | 100% | 100% | 100% | 100% | 100% | 100% | 100% | 100% | 100% | 100% | 100% | 100% | 100% | 100% | 100% | 100% | 100% |  |  |
| O=S(=O)(CCl)Oc1ccccc1Oc1ncc(Cl)cn1 [Example I-9] |  | 100% | 100% |  | 90% |  | 100% | 100% |  |  | 100% | 90% | 100% | 100% |  | 100% |  | 90% |  |
| O=S(=O)(CCCCl)Oc1ccccc1Oc1ncc(Cl)cn1 [Example I-2] | 90% | 100% | 100% | 100% | 100% | 100% | 100% | 100% | 90% | 100% | 100% | 100% | 100% | 100% | 100% | 100% | 100% |  | 90% |
